From patent US20220016101A1 (ACADIA Pharmaceuticals Inc., priority 2018, published 2022)

Key:
Assay type in all cases: in vivo, human
[1] = system: patients with MDD and an inadequate response to an SSRI or SNRI; test: Karolinska Sleepiness Scale (KSS), MDD study; conditions: Week 5 of Stage 1
Description: “Karolinska Sleepiness Scale (KSS)” is a scale for evaluating subjective sleepiness (Kaida et al. Clinical Neurophysiology 2006, 117, 7, 1574-1581).
Clinic visits occurred weekly from Weeks 1 through 10. The MADRS was administered at screening and baseline. The HAMD-17, SDS, CGI, and KSS were administered at baseline and weekly during the study. Other endpoints such as the SF-12 were administered at baseline and Weeks 5 and 10. Treatment response was defined as a reduction of 50% from baseline for the HAMD-17 total score, and remission was defined as a HAMD-17 total score

[2] = system: patients with MDD and an inadequate response to an SSRI or SNRI; test: HAMD-17 melancholic symptom subscale score (HAMD-6), MDD study; conditions: for HAMD-17 Melancholic Symptom Subscale Score Change from Baseline to Week 5 Mean (SE) / HAMD-17 Melancholic Symptom Subscale Score Change from Baseline to Week 5 Median: 34 mg QD + SSRI/SNRI
Excerpt: “Hamilton Depression Scale 6-item (HAMD-6)” is a subscale derived from the 17-item Hamilton Rating Scale for Depression (HAMD-17). HAMD-6 includes the following items: depressed mood, guilt feelings, work and interests, psychomotor retardation, psychic anxiety, and general somatic symptoms (Bech et al. Acta Psychiatr Scand. 1975, 51(3):161-70).
All patients continued on their SSRI or SNRI at a stable dose for the duration of the study.
A higher HAMD-17 melancholic symptom subscale score indicates more severe depression […]. The abbreviations are: CI=confidence interval; LSM=least squares mean; MMRM=mixed-effects model for repeated measures; OC=observed cases; SD=standard deviation; SE=standard error. In Stage 1, Baseline=Study Week 0, Weeks 1-5=Study Weeks 1-5; and in Stage 2, Baseline=Study Week 5, Weeks 1-5=Study Weeks 6-10. LSM is from the stage-specific MMRM analysis with the change from baseline as the outcome; treatment group, visit, treatment-by-visit interaction, baseline melancholic symptom subscale score, and baseline melancholic symptom subscale score-by-visit interaction as the factors. An unstructured covariance matrix is used to model the within-subject errors. The denominator degrees of freedom are estimated using the Kenward-Roger approximation. 2-Sided p-value is for treatment difference from the stage-specific MMRM analysis.

[3] = system: patients with MDD and an inadequate response to an SSRI or SNRI; test: HAMD-17 Item 14 (sexual interest), Study ACP-103-042; conditions: Week 5
Excerpt: The determination of the subject's status and eligibility for randomization in Stage 2 was made in a double-blind manner.

CC(C)COc1ccc(CNC(=O)N(Cc2ccc(F)cc2)C2CCN(C)CC2)cc1 [pimavanserin, N-(4-Fluorophenylmethyl)-N-(1-methylpiperidin-4-yl)-N′-(4-(2-methylpropyloxy)phenylmethyl)carbamide]
KSS effect size [1]: 0.627 | KSS LSmean difference from baseline for pimavanserin vs. placebo ([1]; daytime sleepiness): −1.1 (0.30) | HAMD-17 Melancholic Symptom Subscale Score Effect Size (Cohen's d) ([2]; Stage 1): 0.558 | HAMD-17 Melancholic Symptom Subscale Score Change from Baseline to Week 5 Mean (SE) ([2]; Stage 1): −6.8 (0.62) | HAMD-17 Melancholic Symptom Subscale Score Change from Baseline to Week 5 Median ([2]; Stage 1): −8.0 | HAMD-17 Melancholic Symptom Subscale Score Effect Size (Cohen's d) ([2]; Stage 2): −0.304 | HAMD-17 Melancholic Symptom Subscale Score Change from Baseline to Week 5 Mean (SE) ([2]; Stage 2): −1.0 (0.46) | HAMD-17 Melancholic Symptom Subscale Score Change from Baseline to Week 5 Median ([2]; Stage 2): −1.0 | HAMD-17 Item 14 (sexual interest) Cohen's d effect size [3]: 0.574 | HAMD-17 Item 14 (sexual interest) LS Mean (SE) change from baseline ([3]; 34 mg QD + SSRI/SNRI): −0.7 (0.12)
